MIC data for 1 substance are collected here from patent publication US20080096449A1, “USE OF METALLIC GLUCONATE SALTS IN THE PRODUCTION OF ANTIMICROBIALLY ACTIVE SUBSTRATES” (priority 2002, published 2008).

Common to all, as to experiment: Minimum inhibitory concentration (MIC)
Holding throughout (assay type): cell-based

Assay [1] deals with Escherichia coli ATCC 11229. To be noted: strain EC.
The subject of assay [2] is Pseudomonas aeruginosa ATCC 9027. To be noted: strain PA.
Assay [3] has as its system Candida albicans ATCC 10231. To be noted: strain CA.
The subject of assay [4] is Aspergillus niger ATCC 16404. The note with it: strain AN.
In assay [5] the test system is Staphylococcus aureus ATCC 6538. To be noted: strain SA.

Regarding zinc gluconate, the MIC in assay [1] is reported as 6250 ppm; in assay [2] it was 12500 ppm; in assay [3] it was 3120 ppm; in assay [4] it was 6250 ppm; in assay [5], 5000 ppm.
